Measured values reported in patent publication US12377153B2, “Poly(beta-thioester) polymers and polymeric nanoparticles” (MASSACHUSETTS INSTITUTE OF TECHNOLOGY, priority 2019, dated 2025).

Tested on: dendritic cells in the draining lymph nodes
Assay: Dendritic cell phenotype in draining lymph nodes after subcutaneous vaccination
Format: in vivo, C57BL/6J mice
Conditions: antigen alone as compared to vehicle-treated animals
Protocol: The activity of the polymeric adjuvant B18 was assessed in C57BL/6J mice. Vaccines were prepared by admixing a model peptide antigen (SIINFEKL) with B18 nanoparticles and injected subcutaneously into mice. Following three injections placed three days apart, animals were sacrificed and dendritic cell phenotype in the draining lymph nodes were analyzed using flow cytometry.

SIINFEKL
dendritic cell activation: no appreciable dendritic cell activation
